A word on the IC50: it is the concentration that gives 50% inhibition.

The subject of test [1] is PP2C. Also noted: method as in PMID 10617768. Particulars: up to 1–10 µM; cited from earlier work.
Test [2] relates to acid phosphatase. Further details: method as in PMID 10617768. The conditions noted are these: up to 1–10 µM; cited from earlier work.
Test [3] has as its system alkaline phosphatase. Further details: method as in PMID 10617768. The conditions noted are these: up to 1–10 µM; cited from earlier work.
For test [4], the system named is PP5. Also noted: method as in PMID 10617768. The conditions noted are these: mammalian brain; cited from earlier work.
The test system of test [5] is PP1. Further details: method as in PMID 10617768. The conditions noted are these: mammalian brain; cited from earlier work.
Test [6] has as its system PP2A. Also noted: method as in PMID 10617768. The conditions noted are these: mammalian brain; cited from earlier work.
Test [7] deals with PP7. Also noted: method as in PMID 10617768. Particulars: up to 1–10 µM; cited from earlier work.
In test [8] the test system is membrane-bound phosphatase activities of washed cortical membrane. As to the kind of experiment: LC-MS/MS phosphatase assay with effectors, N-terminal phosphopeptide pI2α1N-P as substrate. The class given is biochemical. The procedure:
(§1) Phosphatasic activity of bovine, rat and human washed cortical membranes was measured by using synthetic phosphopeptides as substrates. Reactions were performed in presence of 50 µg/ml (total proteins) of washed cortical membrane, 10 mM Hepes-Tris pH 7.4 and 1 mM MgCl2. Enzymatic reactions were initiated by adding 10 µM of phosphopeptide incubated for 10 min at 30°C and stopped by adding ice-cold acetic acid at a final concentration of 10% (w/v). Following a 800 g centrifugation during 10 min at 4°C, the supernatants were analyzed by LC-MS/MS. […] For these reasons, and to avoid micro-capillary column obstruction we have preferentially used the micro-LC column to characterize the pharmacological profile of phosphatasic activities.
Quantification of appearance of the native peptide and disappearance of the phosphopeptide in different conditions was performed using the calibration curve plotted using the Xcalibur software (P/N 64018-XCALI version 1.3). The calibration curve and linear regression were constructed using a series of standards, native and phosphorylated equimolar mixture, N- or C-terminal peptides at different concentrations 0.5, 1, 2, 5 and 10 µM (n = 2) in 10 mM Hepes pH 7.4, 1 mM Mg^2+ and 10% acetic acid, which was the same milieu condition as in the phosphatase assay after stopping reactions. The linear regression represents peak area of MS/MS chromatogram spectra depending on the peptide concentration (Figure S1).
Different effectors were tested by addition to the incubation medium at variable concentration: the dicationic ions Mg^2+, Ca^2+, Zn^2+ were used as chloride, the polycation spermine as hydrochloride, the anion F^− as sodium fluoride (NaF), and the inhibitors of some known phosphatases okadaic acid and the two (+/−) enantiomers of p–bromotetramisole oxalate (p-Br-t). For the inhibitory effects, relative 50% inhibition concentration (IC50) values were either determined graphically with a log-scale for the concentration axis or by the ‘log (inhibitor) vs. response’ nonlinear fit of Prism 5 software (GraphPad), considering activity in the absence of inhibitor as 100%.
Figure 4 Effects of various inhibitors on the membrane-bound phosphatase activities. […] Incubations were performed at 30°C during 10 min. The activities are expressed as a percentage of that of control samples without inhibitors. Inhibition profiles of PPase activities by okadaic acid were performed using N-terminal phosphopeptide (A) or C-terminal phosphopeptide (B) as substrate. The data points are means ± SEM of 3 experiments. The red arrows indicate the different IC50. […] Data points are the average ± SEM of duplicate assays. (D) Effect of Ca^2+ ions, fluoride (F^−) and spermine (SPM^4+) on PPase activity using N-terminal phosphopeptide as substrate.

For test [9], the system named is PTP. Further details: method as in PMID 10617768. Particulars: up to 1–10 µM; cited from earlier work.
In test [10] the test system is GABAA receptor currents in pyramidal neurons. Further details: method as in PMID 15342727. Particulars: 10 µM in the pipette milieu, four neurons; cited from earlier work.
Test [11] deals with membrane-bound phosphatase activities of washed cortical membrane. Description: LC-MS/MS phosphatase assay with effectors, C-terminal phosphopeptide pI2α1C-P as substrate. Format: biochemical. As to the method:
as §1
Quantification of appearance of the native peptide and disappearance of the phosphopeptide in different conditions was performed using the calibration curve plotted using the Xcalibur software (P/N 64018-XCALI version 1.3). […]
Figure 4 Effects of various inhibitors on the membrane-bound phosphatase activities. […] The activities are expressed as a percentage of that of control samples without inhibitors. […]

Test [12] has as its system PP2B. Further details: method as in PMID 10617768. The conditions noted are these: mammalian brain; cited from earlier work.
In test [13] the test system is GABAA receptor currents in pyramidal neurons. As to the kind of experiment: Whole-cell patch clamp, rundown of GABAA currents in acutely dissociated cortical pyramidal neurons. The class given is cell-based, rat. Particulars: 10 µM in the pipette. As to the method: Adult Sprague Dawley rats (35–40 days of age) were anesthetized by isoflurane and killed by decapitation. The brains were removed quickly and placed in cold artificial cerebro-spinal fluid (Ringer) containing (in mM) 126 NaCl, 3 KCl, 26 NaHCO3, 1.25 Na2HPO4, 2.5 CaCl2, 1.5 MgCl2, 10 D-glucose, saturated with carbogen gas (O2:CO2, 95:5%) pH 7.4. Cortical neurons were acutely dissociated from 400 µm thick slices by incubation in 3 mg/ml protease-XXIII (Sigma) at 32°C, followed by mechanical dissociation. After washing, the cells were transferred in a solution containing (in mM) 135 NaCl, 3 KCl, 2 CaCl2, 10 Hepes, 1 MgCl2, 7 TEA-Cl, 10 D-glucose, and 1 µM TTX, pH 7.4. Pyramidal neurons were recorded using borosilicate glass pipettes (4–5 MΩ) filled with a solution containing (in mM) 130 CsF, 10 CsCl, 4 NaCl, 0.5 CaCl2, 10 Hepes, 5 EGTA, and 7 Mg-ATP. Okadaic acid at 10 µM was added to this intracellular milieu for specific experiments.
Whole-cell peak currents induced by GABA (100 µM; fast applications of 1 sec pulses every 3 min) were measured for each application and normalized to the maximal response.
Figure 5 Effects of okadaic acid on the GABAA current rundown. GABAA currents were measured by whole-cell patch clamp on acutely dissociated cortical pyramidal neurons from Sprague Dawley rats. (A) Micrographs of a patched cell at two different magnifications, showing the rapid application device (left). (B) Rundown in cortical neuron: GABA was applied at a concentration of 100 µM during 1 second every 3 min. […] For each group the plot (Left) is the average of normalized currents. Error bars indicate the SEM.
For orientation: In patch-clamp work, channel activity is measured electrically.

The subject of test [14] is PP6. Also noted: method as in PMID 10617768. The conditions noted are these: mammalian brain; cited from earlier work.
The test system of test [15] is PP4. Also noted: method as in PMID 10617768. Particulars: mammalian brain; cited from earlier work.

Take `C=C1[C@@H](O)[C@@H]2O[C@]3(CC[C@H](/C=C/[C@@H](C)[C@@H]4CC(C)=C[C@@]5(O[C@H](C[C@@](C)(O)C(=O)O)CC[C@H]5O)O4)O3)CC[C@H]2O[C@@H]1[C@@H](O)C[C@H](C)[C@H]1O[C@@]2(CCCCO2)CC[C@H]1C` [okadaic acid, Okadaic acid]: the inhibition entry in [1], in test [2], in test [3], in test [7] and in test [9] was “not inhibited” each time. Further, the IC50 in test [4] is 1.4 to 10 nM; in test [5], 270 nM; in test [6], 2 nM; in test [8] (substrate pI2α1N-P, read-out: apparent IC50, high affinity (H)), 0.15 nM; in test [8] (substrate pI2α1N-P, read-out: apparent IC50, low affinity (L)) it was 5 nM; in test [11] (only one affinity, read-out: apparent IC50) it was 0.18 nM. Further, the IC50 in test [12] was 3600 nM; in [14] it was 2 nM; in test [15], 0.2 nM. Further, the “inhibition of membrane-bound phosphatases” value was “completely inhibits” in [8] (300 nM, substrate pI2α1N-P) and “completely inhibits” in [11] (300 nM). The “inhibition of phosphatasic activities by the phosphopeptide method” value in test [8] (10 µM, substrate not specified) is reported as “inhibited most phosphatasic activities”. The “effect on the GABAA current rundown” value in test [10] was “variable effect”. Besides, the “GABAA current rundown in some cells” value in [13] is recorded as “rundown could be abolished”. In [13] (n = 5, Dunnett's test Ns), the “GABAA current rundown, 'Very Rapid' group of neurons vs control” value is “not sensitive to okadaic acid”. In addition, the “GABAA current rundown, 'Mid Rapid', 'Mid Slow' and 'Very Slow' groups of neurons vs control” value in [13] (p<0.01 Mid Rapid, p<0.0001 Mid Slow and Very Slow) is “statistically different from the control”.

Source of the values: PMC4072668, “Mass Spectrometric Detection and Characterization of Atypical Membrane-Bound Zinc-Sensitive Phosphatases Modulating GABAA Receptors” (PLoS ONE, 2014).
